# Results from US7744936B2, “Method for preparing extract from wild ginseng showing anticancer activity and the composition comprising the same” (Seocksanteo Medical Co., Ltd., priority 2004, dated 2010).
# Assays:
# [1] = system: U937 cells (human leukemia cell line); experiment: MTT cell cytotoxicity on U937 cells; format: cell-based; conditions: U-937, 48 hours, adriamycin, read-out: IC50, cytotoxic effect on U937 cells
# Experimental: (§1) U937 cells (human leukemia cell line), A549 cells (human lung cancer cell line) and MDA-MB-231 (human breast cancer cell line) cells were grown on the culture dish having 100 mm diameter (TPP Co., Ltd., Switzerland) in RPMI1640 (Gibco BRL Co., Ltd., USA), supplemented with 10% fetal bovine serum which was inactivated at 37° C. in 5% CO2 and 95% air condition in a humidified incubator. […] Cells on […] culture dish were treated with 500 μl of trypsin-EDTA (Gibco BRL Co., Ltd., U.S.A.) to separate from the dish and 10 ml of fresh medium was added thereto so as to neutralize trypsin-EDTA solution and obtain cell suspension. 1×10^4 cells/well were seeded in 96-well plate and after 24 hours incubation. […] The plate was incubated for 20 minutes at room temperature and then UV absorbance the samples was measured by microplate reader (ELISA reader, DENLEY Co., Japan) to calculate the cell viability at 570 nm. The cell viability rate of negative control group treated with only medium was calculated as a 100% and those of other sample and positive control were calculated. […] The measured absorbance showing the reduced amount of existing cellular enzyme in MTT was proportioned to survival cell density. […]
# splenic leucocytes = experiment: Immunostimulating effect on splenic leucocytes (flow cytometry); format: cell-based, BALB c mouse; conditions: 3 days
# Experimental: To determine the immunostimulating effect of the extract of the present invention, splenic leucocytes (1×10^6 cells/ml) of BALB c mouse were suspended in RPMI1640 medium (Gibco BRL Co., Ltd., USA) supplemented with 100 μg/ml of streptomycin, 100 U/ml of penicillin and 10% fetal bovine serum, and treated with 200 μl/ml of the extracts of Comparative Example 1, 2 and Example 1, 2, respectively. The solution was incubated at 37° C. in 5% CO2 and 95% air condition in a humidified incubator for 3 days and the formation of leucocytes was determined by Flow cytometry. 200 μg/ml of adriamycin treatment group was used as control group.
# [2] = system: MDA-MB-231 (human breast cancer cell line); experiment: MTT cell cytotoxicity on MDA-MB-231 cells; format: cell-based; conditions: 48 hours, adriamycin, read-out: IC50, cytotoxic effect on MDA-MB-231 cells
# Experimental: as §1
# [3] = system: Lewis lung carcinoma cells; experiment: Inhibition of tumor volume increase, Lewis lung carcinoma in mice; format: in vivo, BDF-1 male mice; conditions: 0.5 mg/mouse intraperitoneally, 2 weeks
# Experimental: To determine the inhibitory effect on the volumetric increase of cancer cell, following experiment was performed by modifying the procedure disclosed in the literature (Teruhiro et al., Cancer Res., 56, pp 2809-14, 1996).
# Lewis lung carcinoma cells (1×10^6 cells/well) which had been sub-cultured in vivo of experimental mouse and adjusted the concentration to 1×10^6 cells/well, was injected into the left armpit of BDF-1 male mice (6-week-old). After 24 hours, adriamycin in the concentration of 0.5 and 1 mg/mouse, and the extracts prepared in Comparative Example 1, 2 and Example 1, 2 in the concentration of 50 and 100 μl/mouse were injected into the mice intraperitoneally. The injection of samples was maintained for 2 weeks until the tumor volume of non-treatment group used as control group become to 2 cm^3. After 2 weeks, the tumor volume was calculated by using following mathematical formulae 1 and 2 to measure the inhibition rate of tumor volume.
# [formula] L (cm): Length of the tumor W^2 (cm^2): Width of the tumor
# [formula] A: Tumor volume (cm^3) of control group B: Tumor volume (cm^3) of sample treatment group
# [4] = system: A549 cells (human lung cancer cell line); experiment: MTT cell cytotoxicity on A549 cells; format: cell-based; conditions: 48 hours, adriamycin, read-out: IC50, cytotoxic effect on A549 cells (text, printed A5497)
# Experimental: as §1
structure (smiles),measurement,setting,value
"COc1cccc2c1C(=O)c1c(O)c3c(c(O)c1C2=O)C[C@@](O)(C(=O)CO)C[C@@H]3O[C@H]1C[C@H](N)[C@H](O)[C@H](C)O1 [Adriamycin, adriamycin]",IC50,[1],3 µg/mL
same,Decrease of immunity,splenic leucocytes; 200 μg/ml adriamycin,26.1%
same,Increase rate of lymphocyte (%),splenic leucocytes; concentration 200 μg/ml,−21.6%
same,IC50,[2],3 µg/mL
same,Inhibition effect (%) on tumor volume,[3],31.20 ± 8.05%
same,IC50,[4],3 µg/mL
